This passage reports MIC and IC50 results from patent publication US10160726B2, “Quinolone derivatives as antibacterials” (priority 2014, dated 2018).

Values after ≈ are worked out from the molar mass of the structure shown. Structures can show the parent of a compound that is named as a salt.

Assay [1] concerns P. aeruginosa NB52019 (wild-type PAO1). Briefly: MIC, broth microdilution (CLSI). The format is cell-based. The following applies: Pseudomonas aeruginosa, PAO1, 20 h; read-out: Antibacterial activity (MIC) NB52019. In general terms: Dilution methods test growth across graded concentrations, often in twofold steps.
Assay [2] deals with E. coli NB27177 (efflux deficient CGSC 11430, ΔtolC732::kan). As to the kind of experiment: microbe, parasite or virus in culture. It is filed as cell-based. The following applies: Escherichia coli, 20 h, read-out: Antibacterial activity (MIC) NB27177.
In assay [3] the test system is P. aeruginosa NB52023 (efflux deficient K1542, ΔmexX ΔmexB). Briefly: microbe, parasite or virus in culture. It is filed as cell-based. The following applies: Pseudomonas aeruginosa, 20 h, read-out: Antibacterial activity (MIC) NB52023.
The target in assay [4] is E. coli DNA topoisomerase IV (Topo IV, ParC-E) (Escherichia coli, UniProt P0AFI2). As to the kind of experiment: Decatenation assay of E. coli Topo IV. It is filed as biochemical. The following applies: decatenation activity of E. coli topoIV (ParC-E); read-out: ParC-E IC50 (Enzyme). How it is done:
Method 2: Decatenation Assay of E. Coli Topo IV
Enzymatic activity of the E. coli DNA topoisomerase IV (Topo IV) reconstituted from its purified subunits was monitored by the decatenation of kinetoplast DNA into minicircles (kDNA, TopoGEN, TG2013-3). To form the functional Topo IV C2E2 heterotetrameric enzyme, equal molar concentrations of the ParC and ParE subunits were combined at high protein concentration (500 nM) and incubated on ice for 1 hour prior to assay start in reaction buffer without ATP or the kDNA. […] The reaction was carried out at 37° C. for 2 hours and terminated by the addition of 2.5 μl of 10× stop solution (0.9% SDS, 50% glycerol, 0.05% bromophenol blue). […] Gels were stained with ethidium bromide (0.5 μg/ml) for 30 minutes and distained in water for 20 minutes. All gels were analyzed using the BIO-RAD ChemiDoc™ XRS^+ with Image Lab 3.0 software. The 50% inhibitor concentration (IC50) was determined as being the compound concentration at which the presence of the kDNA minicircles in the gel was reduced by 50% from the DMSO drug free control (Microsoft Excel 2010 IDBS XLfit, Graph Pad Prism 6).

Assay [5] concerns P. aeruginosa NB52023-CDK0006 (gyrA T83I, parC S87L). Briefly: microbe, parasite or virus in culture. It is filed as cell-based. The following applies: Pseudomonas aeruginosa, 20 h, read-out: Antibacterial activity (MIC) NB52023-CDK0006.
In assay [6] the test system is S. aureus ATCC 29213 (NB01001). As to the kind of experiment: MIC, broth microdilution (CLSI). It is filed as cell-based. The following applies: Staphylococcus aureus, ATCC29213; S. aureus ATCC 29213; 35° C., 20 hours; read-out: Antibacterial activity (MIC) NB01001.
In assay [7] the target is E. coli DNA gyrase (GyrA-B) (Escherichia coli, UniProt P0AES4). Briefly: Supercoiling assay of E. coli gyrase. It is filed as biochemical. Particulars: supercoiling activity of E. coli gyrase (GyrA-B); read-out: GyrA-B IC50 (Enzyme). The method, then:
Method 1: Supercoiling Assay of E. Coli Gyrase
Enzymatic activity of E. coli DNA gyrase reconstituted from its purified subunits was assessed by monitoring the introduction of supercoils into the relaxed plasmid pHOT-1 (TopoGEN, TG2035-3). To form the functional gyrase A2B2 heterotetrameric enzyme, equal molar concentrations of the GyrA and GyrB subunits were combined at high protein concentration (500 nM) and incubated on ice for 1 hour prior to assay start in reaction buffer without ATP or the pHOT-1 plasmid. The reaction mixture (25 μl) contained 10 nM enzyme, 10 ng/μl pHOT-1, 1 mM ATP, 35 mM Tris-HCl pH 7.5, 24 mM KCl, 4 mM MgCl2, 2 mM DTT, 1.8 mM spermidine, 6.5% glycerol, and 100 μg/ml bovine serum albumin. The reaction was carried out at 37° C. for 90 minutes and terminated by the addition of 2.5 μl of 10× stop solution (0.9% SDS, 50% glycerol, 0.05% bromophenol blue). […] Gels were stained with ethidium bromide (0.5 μg/ml) for 30 minutes and destained in water for 20 minutes. All gels were analyzed using the BIO-RAD ChemiDocTm XRS+ with Image Lab 3.0 software. The 50% inhibition concentration (IC50) was determined as being the compound concentration at which the supercoiled band was reduced by 50% from the DMSO drug free control (Microsoft Excel 2010 IDBS XLfit, GraftPad Prism 6).

Assay [8] relates to S. aureus NB01006-AVR005 (gyrA S84L, grlA S80F, grlB E471K). As to the kind of experiment: microbe, parasite or virus in culture. It is filed as cell-based. The following applies: Staphylococcus aureus, 20 h, read-out: Antibacterial activity (MIC) NB01006-AVR005.
Assay [9] relates to E. coli ATCC 25922 (NB27001). As to the kind of experiment: MIC, broth microdilution (CLSI). It is filed as cell-based. The following applies: Escherichia coli, ATCC25922; E. coli ATCC 25922; 35° C., 20 hours; read-out: Antibacterial activity (MIC) NB27001.

E. coli DNA topoisomerase IV (Topo IV, ParC-E), sequence (P0AFI2 whole entry): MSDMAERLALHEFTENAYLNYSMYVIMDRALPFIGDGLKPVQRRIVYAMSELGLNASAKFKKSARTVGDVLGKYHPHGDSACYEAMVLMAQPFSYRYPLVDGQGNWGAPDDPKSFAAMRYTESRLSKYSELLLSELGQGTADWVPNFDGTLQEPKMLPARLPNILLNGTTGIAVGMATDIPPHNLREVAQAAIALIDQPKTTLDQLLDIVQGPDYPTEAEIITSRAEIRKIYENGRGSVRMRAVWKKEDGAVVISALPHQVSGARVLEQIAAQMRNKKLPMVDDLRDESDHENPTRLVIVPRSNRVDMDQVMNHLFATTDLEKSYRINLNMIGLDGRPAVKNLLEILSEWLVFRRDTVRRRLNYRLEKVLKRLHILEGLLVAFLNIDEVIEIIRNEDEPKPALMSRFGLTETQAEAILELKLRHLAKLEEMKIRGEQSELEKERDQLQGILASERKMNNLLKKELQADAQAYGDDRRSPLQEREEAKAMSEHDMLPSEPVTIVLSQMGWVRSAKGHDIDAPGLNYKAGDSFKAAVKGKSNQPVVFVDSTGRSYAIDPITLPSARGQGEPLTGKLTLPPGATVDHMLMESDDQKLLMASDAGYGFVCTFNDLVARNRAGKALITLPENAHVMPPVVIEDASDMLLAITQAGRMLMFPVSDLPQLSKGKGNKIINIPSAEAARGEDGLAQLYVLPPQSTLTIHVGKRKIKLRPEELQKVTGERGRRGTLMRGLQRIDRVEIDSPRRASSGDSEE
E. coli DNA topoisomerase IV (Topo IV, ParC-E), sequence (P20083 whole entry, further chain): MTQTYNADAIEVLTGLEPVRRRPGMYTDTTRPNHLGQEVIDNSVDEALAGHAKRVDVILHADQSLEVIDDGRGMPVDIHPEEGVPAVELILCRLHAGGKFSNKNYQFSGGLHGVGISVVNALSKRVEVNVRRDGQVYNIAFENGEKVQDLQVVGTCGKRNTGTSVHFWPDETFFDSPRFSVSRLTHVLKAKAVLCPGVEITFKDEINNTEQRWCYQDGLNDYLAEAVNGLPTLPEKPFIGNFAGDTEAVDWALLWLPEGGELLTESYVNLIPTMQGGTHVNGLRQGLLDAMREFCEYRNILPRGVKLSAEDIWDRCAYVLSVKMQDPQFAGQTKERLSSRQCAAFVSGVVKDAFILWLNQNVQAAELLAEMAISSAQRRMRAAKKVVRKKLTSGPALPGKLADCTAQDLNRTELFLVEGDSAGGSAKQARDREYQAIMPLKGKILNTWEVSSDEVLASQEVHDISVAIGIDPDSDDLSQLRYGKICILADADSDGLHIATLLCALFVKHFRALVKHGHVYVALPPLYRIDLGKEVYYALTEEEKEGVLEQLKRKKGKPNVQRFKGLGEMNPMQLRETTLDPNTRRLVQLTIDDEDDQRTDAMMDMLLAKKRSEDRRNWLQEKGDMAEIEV
E. coli DNA gyrase (GyrA-B), sequence (P0AES4 whole entry): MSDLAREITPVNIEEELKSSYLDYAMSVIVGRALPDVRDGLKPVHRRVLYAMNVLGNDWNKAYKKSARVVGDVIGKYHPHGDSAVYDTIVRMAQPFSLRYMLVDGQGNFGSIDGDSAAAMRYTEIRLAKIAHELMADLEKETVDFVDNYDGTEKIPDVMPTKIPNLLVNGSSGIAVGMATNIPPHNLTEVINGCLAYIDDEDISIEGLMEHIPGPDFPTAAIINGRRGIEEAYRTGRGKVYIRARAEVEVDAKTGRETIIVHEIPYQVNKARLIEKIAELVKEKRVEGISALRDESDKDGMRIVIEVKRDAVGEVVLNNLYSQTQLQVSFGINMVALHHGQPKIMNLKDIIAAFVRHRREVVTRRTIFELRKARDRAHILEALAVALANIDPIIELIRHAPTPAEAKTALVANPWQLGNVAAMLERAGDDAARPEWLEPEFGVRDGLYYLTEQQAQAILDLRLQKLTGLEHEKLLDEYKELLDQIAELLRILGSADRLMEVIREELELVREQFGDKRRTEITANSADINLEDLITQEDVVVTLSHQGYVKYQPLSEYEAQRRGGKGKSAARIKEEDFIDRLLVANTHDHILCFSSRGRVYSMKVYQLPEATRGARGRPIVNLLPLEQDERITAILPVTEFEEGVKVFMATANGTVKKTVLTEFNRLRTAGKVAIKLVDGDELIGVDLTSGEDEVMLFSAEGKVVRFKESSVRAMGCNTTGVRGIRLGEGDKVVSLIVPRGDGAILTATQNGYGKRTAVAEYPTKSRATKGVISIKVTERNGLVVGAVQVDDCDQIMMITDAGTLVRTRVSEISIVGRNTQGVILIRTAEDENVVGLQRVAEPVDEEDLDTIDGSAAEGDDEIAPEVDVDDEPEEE

For the compound `Cc1c(N2CC[C@@H]([C@H](C)N)C2)ccc2c(OCC3CCOCC3)cc(=O)n(C3CC3)c12` [Example 73, 7-((R)-3-((S)-1-aminoethyl)pyrrolidin-1-yl)-1-cyclopropyl-8-methyl-4-((tetrahydro-2H-pyran-4-yl)methoxy)quinolin-2(1H)-one TFA salt], the MIC in assay [1] was greater than 32 µg/mL; in [2] it was 2 µg/mL; in [3], greater than 32 µg/mL; in assay [5], greater than 32 µg/mL; in assay [6], 1 µg/mL; in [8], 4 µg/mL. Further, the MIC in assay [9] came to 32 µg/mL. The IC50 (usually the concentration needed to halve the response being measured) in [4] turned out to be 4970 nM; in [7] it was 3010 nM.
Turning to `Cc1c(-c2ccc(N)nc2)c(F)cc2ccc(=O)n(C3CC3)c12` [Example 10, 7-(6-Aminopyridin-3-yl)-1-cyclopropyl-6-fluoro-8-methylquinolin-2(1H)-one], the MIC in [1] is greater than 32 µg/mL; in assay [2], less than 0.03 µg/mL; in assay [3] it was 4 µg/mL (≈ 12.9 µM); in assay [5], 8 µg/mL (≈ 25.9 µM); in [6], 0.25 µg/mL (≈ 0.808 µM); in assay [8] it was 0.25 µg/mL (≈ 0.808 µM). The MIC in assay [9] worked out at 4 µg/mL (≈ 12.9 µM). Also, the IC50 in assay [4] worked out at 1930 nM; in assay [7], 1200 nM.
Regarding `Cc1c(N2CC[C@@H]([C@H](C)N)C2)ccc2cc(O)c(=O)n(C3CC3)c12` [Example 79, 7-((R)-3-((S)-1-aminoethyl)pyrrolidin-1-yl)-1-cyclopropyl-3-hydroxy-8-methylquinolin-2(1H)-one TFA salt], the MIC in assay [1] was greater than 32 µg/mL; in assay [2], 1 µg/mL; in [3], greater than 32 µg/mL; in [5], greater than 32 µg/mL; in assay [6] it was 2 µg/mL; in assay [8] it was 8 µg/mL. In addition, the MIC in [9] was 8 µg/mL. In addition, the 50% inhibitory concentration (IC50) turned out to be 1840 nM in [4] and 2440 nM in [7].
